Data reported in US5409692A, “Glucosyltransferase inhibitors, as well as dental caries prevention methods and anticarious foods using the same” (priority 1990, dated 1995).
≈ marks a conversion by molar mass, not a printed value. Blank lines part the entries; values can stand above or below the molecule they belong to.

Assays:
[1] = Solubility in distilled water; assay type: physicochemical; settings: for solubility: distilled water, water
Description: Sugar: Refined sugar (prime grade)
Palatinose: Crystalline palatinose

[2] = system: glucosyltransferase; experiment: Glucosyltransferase inhibition activity (insoluble glucan, absorbance at 550 nm); assay type: biochemical, S. mutans MT8148; settings: 0.15 ml of 2,000 ppm sample solution in 3 ml total volume; pH 6.0, 37° C., 3 hours; control water
Description: As an enzyme solution, was used an extract which was obtained by culturing S. mutans MT8148 strain on Todd-Hewitt medium and then extracting hyphae with 8M urea in accordance with the method proposed by Hamada et al. [S. Hamada et al., J. Gen. Microbiol., 35, 335- 344 (1999 )].
A reaction system was prepared by adding 0.15 ml of an aqueous solution of a sample, said solution having been prepared to contain the sample at the concentration of 2,000 ppm, the enzyme solution prepared from the S. mutans strain and water to 0.6 ml of 500 mM sodium phosphate buffer which had pH 6.0 and contained 5% of sucrose, 0.5% of dextran T10 and 0.5% of sodium azide. The water was added in an amount to give a total volume of 3 ml. They were reacted in a glass test tube. In the above measurement, the amount of the enzyme was set such that the absorbance at 550 nm became about 1.0 when reacted at 37° C. for 3 hours.
Resultant insoluble glucan was subjected to ultrasonic disintegration and the; absorbance (A) at 550 nm was measured. Using as control (B) the absorbance obtained from the use of water in place of the sample solution, the inhibition rate (%) was determined in accordance with the following calculation formula: [formula] (Measurement results )
The glucosyltransferase inhibition activities of the extracts of the various fermented tea leaves, said extracts having been obtained in Examples 1, 2 and 3, and of caffeine and catechins, which are representative components of tea leaves, were measured using the above reaction system.

[3] = system: glucosyltransferase; experiment: Anti-glucan formation test; assay type: biochemical, S. mutans MT8148; settings: 0.3 ml of 10% sample solution in 3 ml; pH 6.0, 37° C., 3 hours; relative to sugar
Description: To a mixture consisting of 0.3 ml of a 10% sample solution, 0.3 ml of 1M sodium phosphate buffer-which had pH 6.0 and contained 1.0% of dextran T10 and 1.0% of sodium azide--and a glucosyltransferase enzyme solution, water was added in an amount to give a total volume of 3 ml so that a reaction system was prepared. They were reacted in a glass test tube.
Insoluble glucan thus formed was subjected to ultrasonic disintegration, and the absorbance (A) at 550 nm was measured.
As the glucosyltransferase enzyme solution, was used an extract which was obtained by culturing S. mutans MT8148 strain on Todd-Hewitt medium and then extracting hyphae with 8M urea in accordance with the method proposed by Hamada et al. [S. Hamada et al., J. Gen. Microbiol., 135, 335-344 (1989)].

[4] = system: S. mutans MT8148 strain; experiment: Anti-plaque test (in vitro plaque formation); assay type: cell-based; settings: sample 5% in Dulbecco's modified Eagle's medium, 37° C., 1 day, anaerobic; Average ± S.D.; anticarious sugar of Example 10
Description: The test was carried out in the following manner. Culture media were prepared by adding the test samples at the concentration of 5% to Dulbecco's modified Eagle's medium, respectively. 6-ml Portions of the media were added to glass test tubes, respectively, to which S. mutans MT8148 strain was planted. After the cells were cultured at 37° C. for 1 day under anaerobic conditions, the amounts of plaque adhered on the walls of the respective test tubes were weighed.

solubility ([1]; 10° C.): 630 mg/mL (≈ 1840 mM)
solubility ([1]; 30° C.): 680 mg/mL (≈ 1990 mM)
solubility ([1]; 50° C.): 720 mg/mL (≈ 2100 mM)
solubility ([1]; 70° C.): 740 mg/mL (≈ 2160 mM)
Compound: OC[C@H]1O[C@@](CO)(O[C@H]2O[C@H](CO)[C@@H](O)[C@H](O)[C@H]2O)[C@@H](O)[C@@H]1O [Sugar]

Compound: Oc1cc(O)c2c(c1)OC(c1ccc(O)c(O)c1)C(O)C2 (stereo not shown) [Catechin]
Inhibition rate, % [2]: 13%

Compound: Oc1cc(O)c2c(c1)O[C@H](c1cc(O)c(O)c(O)c1)[C@H](O)C2 [Epigallocatechin]
Inhibition rate, % [2]: 11%

Compound: Oc1cc(O)c2c(c1)O[C@H](c1cc(O)c(O)c(O)c1)[C@@H](O)C2 [Gallocatechin]
Inhibition rate, % [2]: 15%

Compound: OC[C@H]1O[C@H](OC[C@H]2OC(O)(CO)[C@@H](O)[C@@H]2O)[C@H](O)[C@@H](O)[C@@H]1O (stereo partly shown) [Palatinose, palatinose]
Solubility (in words) [1]: low solubility especially at low temperatures
solubility ([1]; 10° C.): 210 mg/mL (≈ 614 mM)
solubility ([1]; 30° C.): 320 mg/mL (≈ 935 mM)
solubility ([1]; 50° C.): 440 mg/mL (≈ 1290 mM)
solubility ([1]; 70° C.): 580 mg/mL (≈ 1690 mM)
Relative amount of formed glucan, % [3]: 2%
Amount of plaque formed [4]: 2.01 ± 0.22 mg

Compound: O=C(O[C@@H]1Cc2c(O)cc(O)cc2O[C@@H]1c1ccc(O)c(O)c1)c1cc(O)c(O)c(O)c1 [Epicatechin gallate]
Inhibition rate, % [2]: 19%

Compound: Oc1cc(O)c2c(c1)O[C@H](c1ccc(O)c(O)c1)[C@H](O)C2 [Epicatechin]
Inhibition rate, % [2]: 14%
